Results: ChEMBL document CHEMBL1158262, “Novel beta-methoxyacrylates of the 9-methoxystrobilurin and oudesmansin classes produced by the basidiomycete Favolaschia pustulosa” (J Nat Prod, 1996)
Converted amounts (≈) assume the structure as drawn. The source made the active and inactive calls. The rule behind the calls is not given here.

What was measured:
Candida albicans = experiment: Antifungal activity against Candida albicans after 18 hrs by serial dilution method; type: functional
JIYOYE [1] = experiment: Cytotoxicity against human Jijoye cells after 2 days by XTT assay; type: functional, cell-based
Bacillus subtilis = experiment: Antibacterial activity against Bacillus subtilis after 18 hrs by serial dilution method; type: functional
JIYOYE [2] = experiment: Cytotoxicity against human Jijoye cells after 5 days by XTT assay; type: functional, cell-based; settings: 120 h

C=CC(C)(C)OC(C)(C)C1COc2ccc(/C=C/C(OC)=C(C)\C(=C/OC)C(=O)OC)cc2O1 (stereo not given)
MIC (Candida albicans): 6 µM (≈ 2.84 µg/mL) | Activity (JIYOYE [1]): inactive | MIC (Bacillus subtilis): 0.9 µM (≈ 0.425 µg/mL) | IC50 (JIYOYE [2]): 1.8 nM | CC50 (JIYOYE [2]; read-out: LC50 (the source's name)): 1.8 nM
